Assay results from EP1064002B9, “USE OF SPHINGOSIN-1-PHOSPHATE, SPHINGOSIN-1-PHOSPHATE DERIVATIVES AND/OR MIXTURES THEREOF FOR THE TREATMENT OF INFLAMMATORY DISEASES OF THE SKIN” (Dermapharm AG, priority 1998, dated 1999).

Assays:
Assay type in all cases: cell-based
Fibroblasten = experiment: Fibroblast proliferation, non-stimulated cells in serum-free medium (DMEM without FKS)
Description: (§1) Das Wachstumsverhalten menschlicher. Fibroblasten in Gegenwart der Testsubstanzen wurde an nicht stimulierten Zellen verfolgt, die in serumfreiem Medium (nach Dulbecco modifiziertes Earle-Medium (DMEM) ohne fetales Kälber-Serum (FKS)) kultiviert wurden.

Keratinozyten [1] = experiment: Keratinocyte proliferation in KGM, [3H]-thymidine incorporation into DNA; details: 4-day treatment; for Proliferation von Keratinozyten ([^3H]-Thymidineinbau in die DNA): 1-10 µM
Experimental: (§2) Die Proliferation von Keratinozyten wurde in Gegenwart von 1-10 µM von Sphingolipid-Derivaten untersucht. Nach 4-tägiger Behandlung mit verschiedenen Sphingolipiden wurde in der logarithmischen Wachstumsphase der Keratinozyten der [^3H]-Thymidineinbau in die DNA gemessen. […] Eine Proliferationshemmung tritt bereits bei einer Konzentration von 1 µM ein, 10 µM SPP reduzierten den Thymidineinbau um ca. 63,1 % (Abb. 1). […] Anhand des MTT-Tests wurde die Zellvitalität in Gegenwart von 1-25 µM SPP untersucht, bis 10 µM wirkten die Substanzen nicht toxisch. […] Dies zeigten mikroskopische Untersuchungen, der MTT-Test als auch durchflußzytometrische Untersuchungen zu Apoptose und Nekrose.

Keratinozyten [2] = experiment: Keratinocyte proliferation in keratinocyte basal medium (KBM) without supplements
Description: Die Versuche wurden auch in "keratinocyte basal medium" (KBM), ohne Supplemente), an kultivierten Keratinozyten durchgeführt. Damit konnte festgestellt werden, daß SPP bzw. […] DMS und C2C wirkten auch in diesem Medium toxisch.

Keratinozyten [3] = experiment: Keratinocyte differentiation, transglutaminase activity
Description: Nachdem gezeigt worden war, daß SPP die Proliferation von Keratinozyten hemmt, ohne daß damit eine vermehrte Toxizität verbunden ist, wurde der Differenzierungsgrad der Zellen nach Einwirkung der Sphingolipid-Derivate untersucht.

[4] = Keratinocyte viability/toxicity: MTT test, microscopy, flow cytometry for apoptosis and necrosis; details: keratinocytes; tested at 1-25 µM; read-out: Zellvitalität (MTT-Test): nicht toxisch bis
Experimental: as §2

[5] = Fibroblast proliferation, non-stimulated cells in serum-free medium (DMEM without FKS); details: human, fibroblasts, read-out: Konzentrationen mit ausgeprägter Toxizität an Fibroblasten
Description: as §1

Row | Structure (SMILES) | Proliferation von Fibroblasten (Fibroblasten; concentration-dependent) | Proliferation von Keratinozyten ([^3H]-Thymidineinbau in die DNA) (Keratinozyten [1]) | antiproliferative effect compared with another substance (Keratinozyten [1]) | mitogene Effekte an Keratinozyten (Keratinozyten [2]) | Differenzierung von Keratinozyten (Transglutaminase-Aktivität) (Keratinozyten [3]) | Zunahme der Differenzierung von Keratinozyten compared with Calcitriol D3 (Keratinozyten [3]) | MCC [5] [µM] | Toxizität an Keratinozyten (Keratinozyten [2]) | further results
1 | CCCCCCCCCCCCC/C=C/[C@@H](O)[C@@H](N)CO [SPH, Sphingosin] | konzentrationsabhängig stark' stimuliert | wachstumshemmende Wirkung | schwächer ausgeprägt als bei SPP | keine mitogenen Effekte | die Differenzierung von Keratinozyten förderten | durchaus vergleichbar | – | – | Wirkstärke (Teilungsaktivität bei Fibroblasten) compared with SPP (Fibroblasten): niedriger als bei SPP; toxische Effekte an Fibroblasten (Fibroblasten; 10 µM): toxische Effekte
2 | C=C1/C(=C\C=C2/CCC[C@]3(C)[C@@H]([C@H](C)CCCC(C)(C)O)CC[C@@H]23)C[C@@H](O)C[C@@H]1O [Calcitriol] | – | – | – | – | ebenfalls eine Differenzierung fördert | – | – | – | –
3 | CCCCCCCCCCCCC/C=C/[C@@H](O)[C@@H](N)COP(=O)(O)O [SPP, Sphingosin-1-Phosphat] | konzentrationsabhängig stark' stimuliert | stark proliferationshemmend | ebenso potent wie Calcipotriol D3 | keine mitogenen Effekte | die Differenzierung von Keratinozyten förderten | durchaus vergleichbar | – | – | Proliferation von Fibroblasten (Fibroblasten; 1 µM): wahrnehmbare Proliferationszunahme; fold induction at 10 µM (Fibroblasten; Fibroblast, 10 µM, read-out: höchste Aktivität (Proliferation von Fibroblasten)): ~6.5; inhibition at 10 µM (Keratinozyten [1]; Keratinocyte, 96 h, 10 µM, logarithmic growth phase, read-out: reduzierten den Thymidineinbau um): ~63.1%; minimal effective concentration (Keratinozyten [1]; Keratinocyte, 96 h, read-out: Konzentration, bei der eine Proliferationshemmung bereits eintritt): 1 µM; MNTC [4]: ≤ 10 µM
4 | CCCCCCCCCCCCC/C=C/[C@@H](O)[C@H](CO)N(C)C [DMS, Dimethylsphingosin] | – | – | – | – | – | – | ≥ 5 | toxisch | –
5 | CCCCCCCCCCCCC/C=C/[C@@H](O)[C@H](CO)NC(C)=O [C2C, C2-Ceramid] | – | hemmten zwar ebenso den Thymidineinbau | – | – | – | – | ≥ 5 | toxisch | Proliferation von Fibroblasten (Fibroblasten; low concentrations): sehr geringe proliferationsfördernde Wirkung
